From patent US20070128217A1 (priority 2003, published 2007)

Legend:
[1] = system: antibodies in sera from SARS patients (sera 1a, 1b, 2, 6, 37, 62, London, SARS-yellow, SARS-green); assay type: binding, human; set-up: Binding of serum 6 to linear peptides of protein X1 of SARS-CoV Urbani / Binding of serum 37 to linear peptides of protein X1 of SARS-CoV Urbani / Binding of serum 6 to looped/cyclic peptide (PEPSCAN-ELISA) / Binding of serum 37 to looped/cyclic peptide (PEPSCAN-ELISA) / Binding of serum 37 to looped/cyclic peptides of protein X1 of SARS-CoV Urbani / Binding of serum 6 to linear peptides of protein X2 / Binding of serum 37 to linear peptides of protein X2 / Binding of serum 37 to looped/cyclic peptides of protein X2 of SARS-CoV Urbani / Binding of serum 6 to linear peptides of protein M of SARS-CoV Urbani / Binding of serum 37 to linear peptides of protein M of SARS-CoV Urbani / Binding of serum 6 to looped/cyclic peptides of protein M of SARS-CoV Urbani / Binding of serum 37 to looped/cyclic peptides of protein M of SARS-CoV Urbani / Binding of serum 6 to linear peptides of protein X3 of SARS-CoV Urbani / Binding of serum 37 to linear peptides of protein X3 of SARS-CoV Urbani / Binding of serum 37 to looped/cyclic peptides of protein X3 of SARS-CoV Urbani / Binding of serum 6 to linear peptides of protein X4 of SARS-CoV Urbani / Binding of serum 37 to linear peptides of protein X4 of SARS-CoV Urbani / Binding of serum 37 to looped/cyclic peptides of protein X4 of SARS-CoV Urbani / Binding of serum 6 to linear peptides of protein X5 of SARS-CoV Urbani / Binding of serum 37 to linear peptides of protein X5 of SARS-CoV Urbani / Binding of serum 37 to looped/cyclic peptides of protein X5 of SARS-CoV Urbani / Binding of serum 6 to linear peptides of protein N of SARS-CoV Urbani / Binding of serum 37 to linear peptides of protein N of SARS-CoV Urbani / Binding of serum 6 to linear peptide (PEPSCAN-ELISA) / Binding of serum 1a to looped/cyclic peptides of protein N of SARS-CoV Urbani / Binding of serum 1b to looped/cyclic peptides of protein N of SARS-CoV Urbani / Binding of serum 2 to looped/cyclic peptides of protein N of SARS-CoV Urbani / Binding of serum 6 to looped/cyclic peptides of protein N of SARS-CoV Urbani / Binding of serum 37 to looped/cyclic peptides of protein N of SARS-CoV Urbani / Binding of serum 62 to looped/cyclic peptides of protein N of SARS-CoV Urbani / Binding of serum London to looped/cyclic peptides of protein N of SARS-CoV Urbani / Binding of serum SARS-green to looped/cyclic peptides of protein N of SARS-CoV Urbani: unit not given here
[2] = system: rabbit serum obtained by immunizing a rabbit with the SARS-CoV strain Frankfurt 1; assay type: binding; set-up: Binding of a rabbit serum to linear peptides / Binding of a rabbit serum to looped peptides / Rabbit serum linear peptides / Rabbit serum looped peptides / Binding of a rabbit serum to linear peptides of protein N of SARS-CoV Urbani (Rabbit serum linear peptides) / Binding of a rabbit serum to looped/cyclic peptides of protein N of SARS-CoV Urbani (Rabbit serum looped peptides): unit not given here
[3] = system: recombinant human anti-SARS-CoV antibody 03-018; assay type: binding; set-up: Binding of antibody 03-018 to linear peptides of the N protein of SARS-CoV Urbani / Binding of antibody 03-018 to looped/cyclic peptides of the N protein of SARS-CoV Urbani: unit not given here
[4] = system: control sera (pooled serum of ten healthy LUMC hospital workers; commercial negative donor pooled serum from the Dutch bloodbank); assay type: binding, human; set-up: Binding of Control serum LUMC to linear peptides / Binding of Control serum Blood-bank to linear peptides / Binding of Control serum LUMC to looped peptides / Binding of Control Serum Blood-Bank to Looped peptides / Binding of Control serum LUMC to linear peptides of the protein M of SARS-CoV Urbani / Binding of Control serum Blood-bank to linear peptides of the protein M of SARS-CoV Urbani / Binding of Control serum LUMC to looped peptides of the protein M of SARS-CoV Urbani / Binding of Control Serum Blood-Bank to Looped peptides of the protein M of SARS-CoV Urbani: unit not given here

Sequence	Binding of serum 1a to linear peptides of protein N of SARS-CoV Urbani [1]	Binding of serum 1a to looped/cyclic peptides of protein N of SARS-CoV Urbani [1]	Binding of serum 1b to linear peptides of protein N of SARS-CoV Urbani [1]	Binding of serum 1b to looped/cyclic peptides of protein N of SARS-CoV Urbani [1]	Binding of serum 2 to linear peptides of protein N of SARS-CoV Urbani [1]	Binding of serum 2 to looped/cyclic peptides of protein N of SARS-CoV Urbani [1]	Binding of serum 6 to linear peptides of protein N of SARS-CoV Urbani [1]	Binding of serum 6 to looped/cyclic peptides of protein N of SARS-CoV Urbani [1]	Binding of serum 37 to linear peptides of protein N of SARS-CoV Urbani [1]	Binding of serum 37 to looped/cyclic peptides of protein N of SARS-CoV Urbani [1]	Binding of serum 62 to linear peptides of protein N of SARS-CoV Urbani [1]	Binding of serum 62 to looped/cyclic peptides of protein N of SARS-CoV Urbani [1]	Binding of serum London to linear peptides of protein N of SARS-CoV Urbani [1]	Binding of serum London to looped/cyclic peptides of protein N of SARS-CoV Urbani [1]	Binding of serum SARS-green to linear peptides of protein N of SARS-CoV Urbani [1]	Binding of serum SARS-yellow to linear peptides of protein N of SARS-CoV Urbani [1]	Binding of serum SARS-yellow to looped/cyclic peptides of protein N of SARS-CoV Urbani [1]	Binding of a rabbit serum to linear peptides of protein N of SARS-CoV Urbani (Rabbit serum linear peptides) [2]	Binding of a rabbit serum to looped/cyclic peptides of protein N of SARS-CoV Urbani (Rabbit serum looped peptides) [2]	Binding of antibody 03-018 to linear peptides of the N protein of SARS-CoV Urbani [3]	further results
GTDYKHWPQIAQFAP	0.3	0.5	0.1	0.3	0.2	0.5	0.2	0.3	0.7	0.7	0.8	0.7	0.6	0.5	0.6	0.7	0.7	0.2	0.5	0.1	Binding of antibody 03-018 to looped/cyclic peptides of the N protein of SARS-CoV Urbani [3]: 0.2; Control Serum Blood-Bank Looped peptides [4]: 0.8; Control serum Blood-bank linear peptides [4]: 0.8; Control serum LUMC linear peptides [4]: 0.6; Control serum LUMC looped peptides [4]: 0.7
GTGPEASLPYGANKE	0.3	0.2	0.1	0.2	0.3	0.2	0.2	0.1	0.9	0.4	0.9	0.3	0.7	0.3	0.7	0.6	0.2	0.1	0.3	0.1	Binding of serum SARS-green to looped/cyclic peptides of protein N of SARS-CoV Urbani [1]: 0.2; Binding of antibody 03-018 to looped/cyclic peptides of the N protein of SARS-CoV Urbani [3]: 0.2; Binding of Control Serum Blood-Bank to Looped peptides [4]: 0.4; Binding of Control serum Blood-bank to linear peptides [4]: 0.7; Binding of Control serum LUMC to linear peptides [4]: 0.8; Binding of Control serum LUMC to looped peptides [4]: 0.4
GTRNPNNNAATVLQL	0.3	0.4	0.1	0.3	0.3	0.7	0.2	0.4	0.7	0.9	0.7	0.9	0.5	0.5	0.3	0.6	0.5	0.1	0.6	0.1	Binding of serum SARS-green to looped/cyclic peptides of protein N of SARS-CoV Urbani [1]: 0.6; Binding of antibody 03-018 to looped/cyclic peptides of the N protein of SARS-CoV Urbani [3]: 0.3; Binding of Control Serum Blood-Bank to Looped peptides [4]: 1.0; Binding of Control serum Blood-bank to linear peptides [4]: 0.8; Binding of Control serum LUMC to linear peptides [4]: 0.8; Binding of Control serum LUMC to looped peptides [4]: 0.8
HGAIKLDDKDPQFKD	0.2	0.2	0.1	0.1	0.2	0.2	0.1	0.1	0.8	0.5	0.7	0.3	0.6	0.3	0.4	0.6	0.3	0.1	0.3	0.1	Binding of serum SARS-green to looped/cyclic peptides of protein N of SARS-CoV Urbani [1]: 0.3; Binding of antibody 03-018 to looped/cyclic peptides of the N protein of SARS-CoV Urbani [3]: 0.2; Control Serum Blood-Bank Looped peptides [4]: 0.4; Control serum Blood-bank linear peptides [4]: 0.6; Control serum LUMC linear peptides [4]: 0.6; Control serum LUMC looped peptides [4]: 0.4
